{
  "source": "patent US11986531B2",
  "about": "“Compounds and methods for the targeted degradation of rapidly accelerated fibrosarcoma polypeptides” (ARVINAS OPERATIONS, INC., priority 2016, dated 2024)",
  "system": "BRAF mutants (Class 1, Class 2 and Class 3)",
  "experiment": "targeted degradation of BRAF mutants (summary of FIGS. 4-10)",
  "assay_type": "cell-based",
  "settings": "BRAF mutants sensitive (Class 1) and insensitive (Class 2 and Class 3) to vemurafenib",
  "data": [
    {"compound": "CCCS(=O)(=O)Nc1ccc(F)c(C(=O)c2c[nH]c3ncc(-c4ccc(N5CCN(CC(=O)N[C@H](C(=O)N6C[C@H](O)C[C@H]6C(=O)NCc6ccc(-c7scnc7C)cc6)C(C)(C)C)CC5)cc4)cc23)c1F", "note": "[compound 512, (2S,4R)-1-((S)-2-(2-(4-(4-(3-(2,6-difluoro-3-(propylsulfonamido)benzoyl)-1H-pyrrolo[2,3-b]pyridin-5-yl)phenyl)piperazin-1-yl)acetamido)-3,3-dimethylbutanoyl)-4-hydroxy-N-(4-(4-methylthiazol-5-yl)benzyl)pyrrolidine-2-carboxamide]", "values": [
      {"measurement": "targeted degradation of BRAF mutants", "value": "induces targeted degradation of BRAF mutants sensitive (Class 1) and insensitive (Class 2 and Class 3) to vemurafenib"}
    ]}
  ]
}
